Test results: EPA's ToxValDB 9.5 (doi:10.2903/j.efsa.2019.5595)
In brackets after ≈: the same amount, converted by molar mass.

Columns and labels:
Apis mellifera = details: acute, duration: 48 hours, mortality
Bibionidae = details: chronic/long-term; duration: 29 days
Cyprinodon variegatus = details: acute; duration: 96 hours; oral; feed; mortality
Cyprinus carpio = details: chronic/long-term
Hyalella azteca = details: acute; duration: 96 hours; mortality
Lepomis macrochirus = details: acute; oral; feed; mortality
Oncorhynchus mykiss = details: acute; duration: 96 hours; oral; feed; mortality
Oryctolagus sp. = details: developmental; development
Tagia sp. = details: acute; duration: 14 days; mortality
Typhlodromus pyri = assay: LR50; higher = less toxic; details: acute; mortality

What does the source list for `N#CN=C1SCCN1Cc1ccc(Cl)nc1` [Thiacloprid]?
LD50 (Apis mellifera; dermal): 38.8 µg/piece; LD50 (Apis mellifera; oral, unspecified): 17.3 µg/piece; NOEC (Bibionidae): 0.63 µg/kg; LC50 (Cyprinodon variegatus): 19.7 µg/mL (≈ 77.9 µM); NOEC (Cyprinus carpio): 4.5 µg/L; LC50 (Hyalella azteca): > 47.6 µg/mL; LC50 (Lepomis macrochirus): > 78.6 µg/mL; LC50 (Oncorhynchus mykiss): > 90.1 µg/mL; NOAEL (Oryctolagus sp.): 2 mg/kg-day; LD50 (Rattus norvegicus; acute, oral, Fischer 344, mortality): 177 mg/kg-day; NOAEL (Rattus norvegicus; chronic, histopathology: nonneoplastic): 1.2 mg/kg-day; NOAEL (Rattus norvegicus; developmental, development): 2 mg/kg-day; NOAEL (Rattus norvegicus; reproduction developmental, reproduction): 3.3 mg/kg-day; NOAEL (Serinus canaria; acute, oral, unspecified, mortality): 15 mg/kg-day; LD50 (Serinus canaria; chronic/long-term): 3.5 mg/kg-day; LC50 (Tagia sp.): 105 mg/kg; LR50 (Typhlodromus pyri): 0.331 g/ha
